Legend:
Type in all cases: cell-based
[1] = tested on: BT-549; assay: MTT assay
Description: (§1) MTT assay: Cells were grown to log phase in their respective media, washed in PBS, trypsinized, and plated on 96-well plates at a density of 3,000-6,000 cells per well in 200 μL of complete media. Cells were allowed to recover for 18 hours and were then exposed to AgNPs for 48 or 72 hours. For NAC studies, cells were exposed to 4 mM NAC (Sigma Aldrich) diluted in growth media for 6 h prior to AgNP treatment. Media containing NAC was removed and replaced with media containing AgNPs. For induction of EMT, cells were exposed to 10 ng/ml TGF-β1 (R&D Systems) for 6 days at 37° C., prior to AgNP treatment. Media containing AgNPs were replaced with 200 μL of media containing 0.5 mg/mL MTT and incubated for 1 hour at 37° C. Medium was removed, and cells were lysed in 200 μL of DMSO and read using a Molecular Devices Emax Precision Microplate Reader at 560 nm and corrected for background at 650 nm.
ZEB1 Knockdown: BT549 cells were plated in 60mm tissue culture plates and allowed to grow to 80-90% confluence. Each plate was then transfected with a non-coding control shRNA plasmid, or a plasmid containing shRNA targeted against ZEB1. Knockdown constructs used in this study were obtained from Sigma Aldrich (Mission shRNA TRCN0000369267 and TRCN0000369266). Each plate was transfected using 1 μg plasmid in conjunction with Lipofectamine 2000 (Invitrogen) according to the manufacturer's protocol. The following day cells were reseeded and were maintained in medium containing puromycin (2 μg/ml). ZEB1 expression levels were verified using immunoblot prior to experimentation.
TNBC cell lines which can be further classified as the CLBC (MDA-MB-231, BT-549, SUM-159) or basal (BT-20, MDA-MB-468) molecular subtypes were tested, as were luminal A (MCF-7), HER-2+ (SKBR3), and non-cancerous breast (MCF-10A, 184B5, iMEC) cell lines (FIG. 2A). […] As with the 48 h treatment, the CLBC cell lines were the most sensitive to AgNPs following a 72 h treatment.
(§2) IC50 calculations were performed using the prism software. IC50 in Table II are shown in total NP (AgNP) concentration and silver (Ag) content. At least 3 independent experiments were conducted for each cell line.
BT549 claudin-low breast cancer cells were treated with either AgNPs or KRIBB11, an HSF1 inhibitor, independently and in combination. The treated cells were then assessed for cell viability by MTT assay (FIG. 17A).
BT549 claudin-low breast cancer cells were treated with either AgNPs or 17-DMAG, an HSP90 inhibitor, independently and in combination. Treated cells were then assessed for cell viability by MTT assay (FIG. 19A). […] Combination treatment of both AgNPs and […]

[2] = tested on: MDA-MB-231; assay: MTT assay
Description: as §1
As with the 48 h treatment, the CLBC cell lines were the most sensitive to AgNPs following a 72 h treatment.
as §2

[3] = tested on: PERK arm of the UPR in MDA-MB-231 cells; assay: Immunoblotting of PERK arm activation (p-eIF2α); details: 4 h
Description: MDA-MB-231 cells were treated with 1 μM of the ER stress inducer, thapsigargin, 25 nM of the PERK inhibitor (PERKi), […], or the combination of thapsigargin and GSK2606414 for 4 h to verify the efficacy of the PERKi, GSK2606414. […] To further evaluate the role of ER stress in AgNP-induced cytotoxicity, MDA-MB-231 cells were treated with increasing doses of AgNPs alone or in combination with the PERKi, GSK2606414, for 48 h to determine if PERK inhibition provides protection against AgNP-induced cytotoxicity.

[4] = tested on: BT-20; assay: MTT assay
Description: as §1
TNBC cell lines which can be further classified as the CLBC (MDA-MB-231, BT-549, SUM-159) or basal (BT-20, MDA-MB-468) molecular subtypes were tested, as were luminal A (MCF-7), HER-2+ (SKBR3), and non-cancerous breast (MCF-10A, 184B5, iMEC) cell lines (FIG. 2A). […]
BT20 basal-like breast cancer cells were treated with either AgNPs or KRIBB11, an HSF1 inhibitor, independently and in combination. Treated cells were then assessed for cell viability by MTT assay (FIG. 18A).

[5] = tested on: AgNP sensitive cell lines; assay: ROS detection with H2DCF-DA; details: 24 h 10 mM NAC

CO[C@H]1/C=C\C=C(/C)C(=O)NC2=CC(=O)C(NCCN(C)C)=C(C[C@@H](C)C[C@H](OC)[C@H](O)[C@@H](C)/C=C(\C)[C@@H]1OC(N)=O)C2=O [17-DMAG]
sensitivity to AgNPs versus HSP90 inhibition (dose reduction index) ([1]; BT549, single agents): equally sensitive

Cn1cc(-c2ccc3c(c2)CCN3C(=O)Cc2cccc(C(F)(F)F)c2)c2c(N)ncnc21 [GSK2606414]
viability, AgNPs alone vs in combination with the PERKi ([2]; MDA-MB-231, 48 h): no significant difference in viability | p-eIF2α expression, co-treatment with thapsigargin vs thapsigargin alone ([3]; MDA-MB-231, 25 nM PERKi + 1 μM thapsigargin): decreased p-eIF2α expression

CNc1ccc([N+](=O)[O-])c(Nc2ccc3[nH]ncc3c2)n1 [KRIBB11]
combination treatment with AgNPs (combination index) ([1]; BT549, AgNPs + HSF1 inhibitor): synergistic response | combination treatment with AgNPs (combination index) ([1]; BT549, AgNPs + HSP90 inhibitor): additive response | sensitivity to AgNPs versus HSF1 inhibition (dose reduction index) ([1]; BT549, single agents): equally sensitive | combination treatment with AgNPs (combination index) ([4]; BT20, AgNPs + HSF1 inhibitor): synergistic response | sensitivity to AgNPs versus HSF1 inhibition (dose reduction index) ([4]; BT20, single agents): marginally more sensitive to AgNPs

CC(=O)N[C@@H](CS)C(=O)O [NAC, N-acetylcysteine]
effect of NAC pre-treatment on AgNP cytotoxicity ([1]; BT-549, 4 mM NAC 6 h before 48 h AgNP, Ag 62.5-125 μg/ml): significantly decreased cytotoxicity | effect of NAC pre-treatment on AgNP cytotoxicity ([2]; MDA-MB-231, 4 mM NAC 6 h before 48 h AgNP, Ag 15.625-62.5 μg/ml): significantly decreased cytotoxicity | basal ROS after NAC treatment [5]: partially mitigate some of the basal ROS

C/C=C(/C)C(=O)O[C@H]1C(C)=C2[C@H]([C@@H]1OC(=O)CCCCCCC)[C@@](C)(OC(C)=O)C[C@H](OC(=O)CCC)[C@@]1(O)[C@H]2OC(=O)[C@@]1(C)O [thapsigargin, Thapsigargin]
phosphorylation of eIF2α (p-eIF2α) ([3]; MDA-MB-231, 1 μM): increase in phosphorylation of the downstream effector, eIF2α
